The text below walks through data of ChEMBL document CHEMBL5726800, “Indazole and azaindazole Btk inhibitors” (2019).

The target in assay [1] is T1, Tyrosine-protein kinase BTK (Homo sapiens, UniProt Q06187). Nature of the assay: 25P Btk Enzyme Activity Assay: Btk enzymatic activity was determined with the LANCE (Lanthanide Chelate Excite) TR-FRET (lime-resolved fluorescence resonance energy transfer) assay. […] To each well of a black non-binding surface Corning 384-well microplate (Corning Catalog #3820), 5 nL of compound (2000 fold dilution in final assay volume of 10 μL) was dispensed, followed by the addition of 7.5 μL of 1× kinase buffer (50 mM Hepes 7.5, 10 mM MgCl2, 0.01% Brij-35, 1 mM EGTA, 0.05% BSA and 1 mM DTT) containing 26.67 pg/μL (266.7 pM) of 25P Btk enzyme (recombinant protein from baculovirus-transfected Sf9 cells: full-length Btk; MW=79378 Da). Following a 60 minute compound and enzyme incubation, each reaction was initiated by the addition of 2.5 μL 1× kinase buffer containing 8 μM biotinylated “A5” peptide (Biotin-EQEDEPEGDYFEWLE-NH2), and 100 μM ATP. The final reaction in each well of 10 consists of 200 pM 25P Btk, 2 μM biotin-A5-peptide, and 25 μM ATP. Phosphorylation reactions were allowed to proceed for 120 minutes. Reactions were immediately quenched by the addition of 20 uL of 1× quench buffer (15 mM EDTA, 25 mM Hepes 7.3, and 0.1% Triton X-100) containing detection reagents (0.626 nM of LANCE-Eu-W1024-anti-phosphoTyrosine antibody, PerkinElmer and 86.8 nM of Streptavidin-conjugated Dylight 650, Dyomics/ThermoFisher Scientific). […].
T1 sequence (Q06187 whole entry): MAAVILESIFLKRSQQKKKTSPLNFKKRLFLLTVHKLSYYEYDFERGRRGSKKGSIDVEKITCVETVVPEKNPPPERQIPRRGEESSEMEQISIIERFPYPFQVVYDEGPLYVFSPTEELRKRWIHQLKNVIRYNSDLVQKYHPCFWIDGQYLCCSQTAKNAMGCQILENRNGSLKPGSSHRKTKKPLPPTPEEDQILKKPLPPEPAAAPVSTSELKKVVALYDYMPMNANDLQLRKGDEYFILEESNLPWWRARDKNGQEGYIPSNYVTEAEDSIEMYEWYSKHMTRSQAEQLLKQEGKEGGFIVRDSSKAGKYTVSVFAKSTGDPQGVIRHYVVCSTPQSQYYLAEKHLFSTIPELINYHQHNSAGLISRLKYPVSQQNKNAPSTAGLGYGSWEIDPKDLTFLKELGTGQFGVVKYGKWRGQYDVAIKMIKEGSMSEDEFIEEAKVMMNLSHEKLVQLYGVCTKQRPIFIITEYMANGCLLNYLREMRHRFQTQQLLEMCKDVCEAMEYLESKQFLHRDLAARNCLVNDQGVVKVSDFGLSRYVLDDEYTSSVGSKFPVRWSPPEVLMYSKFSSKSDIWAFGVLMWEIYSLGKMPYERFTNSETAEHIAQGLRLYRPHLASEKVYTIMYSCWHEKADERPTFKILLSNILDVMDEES

For assay [2], the target named is T1, Tyrosine-protein kinase BTK. The assay can be described thus: 100P Btk Enzyme Activity Assay: Btk enzymatic activity was determined with the LANCE (Lanthanide Chelate Excite) TR-FRET (lime-resolved fluorescence resonance energy transfer) assay. […] To each well of a black non-binding surface Corning 384-well microplate (Corning Catalog #3820), 5 nL of compound (2000 fold dilution in final assay volume of 10 μL) was dispensed, followed by the addition of 7.5 μL of 1× kinase buffer (50 mM Hepes 7.5, 10 mM MgCl2, 0.01% Brij-35, 1 mM EGTA, 0.05% BSA & 1 mM DTT) containing 13.3 pg/μL (133.3 pM) of 100P Btk enzyme (recombinant protein from baculovirus-transfected Sf9 cells: full-length Btk; MW=79378 Da). Following a 60 minute compound and enzyme incubation, each reaction was initiated by the addition of 2.5 μL 1× kinase buffer containing 8 μM biotinylated “A5” peptide (Biotin-EQEDEPEGDYFEWLE-NH2) (SEQ.ID.NO.: 1) and 100 μM ATP. The final reaction in each well of 10 consists of 100 pM 100P Btk, 2 μM biotin-A5-peptide, and 25 μM ATP. Phosphorylation reactions were allowed to proceed for 45 minutes. Reactions were immediately quenched by the addition of 20 uL of 1× quench buffer (15 mM EDTA, 25 mM Hepes 7.3, and 0.1% Triton X-100) containing detection reagents (0.626 nM of LANCE-Eu-W1024-anti-phosphoTyrosine antibody, PerkinElmer and 86.8 nM of Streptavidin-conjugated Dylight 650, Dyomics/ThermoFisher Scientific). […].

On to `Cc1c(NC(=O)c2ccc(C(C)(C)C)cc2F)cccc1-c1cc(-c2cnn(C)c2)c2[nH]nc(N)c2c1`, for which the IC50 is 23.8 nM in assay [1] and no less than 1000 nM in assay [2].
